# Source: patent US20240117431A1, “STEM-CELL BASED BIOMARKER DISCOVERY” (THE REGENTS OF THE UNIVERSITY OF CALIFORNIA, priority 2020, published 2024)
# Legend:
# [1] = tested on: (−)TgUPRT HEK cells; experiment: Background incorporation of uracil analogs into RNA, streptavidin-HRP dot blot; format: cell-based; details: for incorporation into RNA at higher concentration: 1 mM, mimics in vivo applications, FIG. 4
# Procedure: Transfection, labeling of cellular RNA and RNA isolation: After 48h seeding, HEK293 cells were transfected with 2.5 μg of TgUPRT WT or mutant plasmids (pKN-CMV-TgUPRT-WT or -Mutt to Mut17) per 5 cm plate using JetPrime Transfection reagent (Polyplus Transfection, France). At 40h post-transfection, cells were incubated with a final concentration of 200 μM at <1% DMSO from 400 mM stock of uracil analogs (5EU, 5VU, 5AU) or 200 mM SAMU stock for 5 h. For time course study, HEK cells were treated with 200 μM uracil analogs for 0 h, 0.5, 1, 3, 5, 12 and 24 hours. For titrating uracil analog concentration experiments, HEK cells were treated with 0 (DMSO), 50, 100, 200, 500 μM or 1 mM uracil analog for 5h. Treated HEK cells were subjected to total RNA extraction using 1 mL Trizol Reagent (Invitrogen) following the manufacturer instructions.
# Biotinylation via CuAAC and IEDDA: Cu-mediated Azide-Alkyne cycloaddition (CuAAC) click reactions were performed in 50 μL reaction at 22° C. on a shaker for 30 min with click reaction cocktail containing 15 μg of total RNA, 1 mM biotin alkyne or biotin azide, fresh 4.6 mM THPTA to a final concentration of 1 mM, and fresh 10.6 mM sodium ascorbate (NaAsc) at final concentration of 1.77 mM, and 12 mM CuSO4 at final concentration of 200 μM in biotinylation reaction buffer (10 mM TrisHCI, 1 mM EDTA, pH7.4). The biotinylated RNA was purified using RNA clean & Concentrator-5 kit (Zymo Research, Cat #R1013) according to the manufacturer instructions and eluted in 21 μL of nuclease free water.
# Inverse electron demand [4+2] Diels-Alder cycloaddition (IEDDA) click reactions were performed in 50 μL at 37° C. or 22° C. (RT) for 3h on mixer at 500 rpm containing 10-15 μg of total RNA, 1 mM final concentration of biotin-benzyl tetrazine (Sigma Aldrich, Cat #793329-5MG) in nuclease free water. Clicked total RNA was purified using RNA clean & Concentrator-5 kit (Zymo Research, Cat #R1013) according to the manufacturer instructions, and RNA was eluted in 21 μL of nuclease free water.
# HRP-streptavidin dot blot analysis: All gel reagents were from Bio-Rad. For dot blot analysis, 2 μg of clicked total RNA was applied onto Hybond-N+ membrane (GE Healthcare) as individual dots and UV-crosslinked (254 nm) to a membrane (Stratalinker UV crosslinker). Membranes were blocked in blocking buffer (0.12 M NaCl, 0.016 M Na2HPO4, 0.008 M NaH2PO4, 0.17 M SDS) and followed by incubation with high sensitivity streptavidin-HRP (Fisher Scientific, Cat #: P121130) at 1:5000 dilution in blocking buffer for 5 minutes. The membrane was washed twice in a Wash A buffer (1:10 dilution of blocking buffer) and twice in Wash B buffer (Tris-saline buffer). […]
# [2] = tested on: HEK cells; experiment: Trypan blue cell viability / proliferation; format: cell-based; details: triple mutant TgUPRT + 5VU 200 μM, 5, 16, 24h, versus untreated cells, FIG. 11
# Procedure: Equal amount HEK cells (2×10^5) were seeded in a 6-well plate with 2 mL media. Twenty-four hour […], HEK cells were transfected with 1 μg empty plasmid (No GFP nor TgUPRT), double (2×MT) or triple (3×MT) TgUPRT mutants. 5VU was added to cells at 200 μM final concentration for 5, 16 and 24h treatment so that by the time cells were assayed with Trypan blue, they underwent 48h post transfection. DMSO (carrier) treatment (negative control) was done for 24h. Cells were stained with 0.04% Trypan blue for 5 minutes and subjected to cell counting using Countess II FL (Invitrogen, USA). Per condition, counting was done with n=2× biological and 3× technical replicates.
Structure (SMILES),incorporation into RNA at higher concentration [1],"background incorporation into RNA ([1]; (−)TgUPRT HEK cells, FIGS. 3A, 3B)","cell viability, Trypan blue [2]"
"C#Cc1c[nH]c(=O)[nH]c1=O [compound 1, 5-ethynylpyrimidine-2,4(1H,3H)-dione]",very robust incorporation,low level of background incorporation,–
"C=Cc1c[nH]c(=O)[nH]c1=O [compound 2, 5-Vinylpyrimidine-2,4(1H,3H)-dione]",not observed,–,non-significant differences to untreated cells
